Assay results from ChEMBL document CHEMBL5625248, “Identification of unique indolylcyanoethylenyl sulfonylanilines as novel structural scaffolds of potential antibacterial agents” (Eur J Med Chem, 2023).
In brackets after ≈: the same amount, converted by molar mass. Activity calls are given as the source filed them. The calls are words filed in the database; no cut-off is given here.

How the values were obtained:
Acinetobacter baumannii [1] = experiment: Antibacterial activity against Acinetobacter baumannii assessed as reduction in LDH activity; format: functional, organism-based
Escherichia coli [2] = experiment: Antibacterial activity against Escherichia coli ATCC 25922 assessed as increase in intracellular ROS production by measuring green fluorescence by DCFH-DA staining based microscopic analysis; format: functional, organism-based
Acinetobacter baumannii [3] = experiment: Induction of oxidative stress in Acinetobacter baumannii assessed as decrease in GSH activity by Ellman's method; format: functional, organism-based
[4] = Cytotoxicity against human Squamous epithelial cell assessed as cell viability upto 50 ug/ml relative to control; format: toxicity, cell-based; settings: squamous epithelial cells, up to 50 µg/mL, read-out: Activity
Staphylococcus aureus [5] = experiment: Antibacterial activity against methicilin-resistant Staphylococcus aureus N315 assessed as inhibition of bacterial growth incubated for 18 hrs by two fold broth microdilution assay; format: functional
Escherichia coli [6] = experiment: Antibacterial activity against Escherichia coli ATCC 25922 assessed as inhibition of bacterial growth incubated for 18 hrs by two fold broth microdilution assay; format: functional
Acinetobacter baumannii [7] = experiment: Antibacterial activity against Acinetobacter baumannii assessed as increase in intracellular ROS production by DCFH-DA staining based assay; format: functional, organism-based
Klebsiella pneumoniae = experiment: Antibacterial activity against Klebsiella pneumoniae assessed as inhibition of bacterial growth incubated for 18 hrs by two fold broth microdilution assay; format: functional
Cell membrane [8] = experiment: Induction of outer membrane permeabilization in Escherichia coli ATCC 25922 assessed as increase in fluorescence intensity by NPN-dye based fluorescence analysis; format: cell membranes
Escherichia coli [9] = experiment: Bactericidal activity against Escherichia coli ATCC 25922 assessed as reduction in colony forming unit at MIC by time-kill kinetic assay; format: functional
Acinetobacter baumannii [10] = experiment: Bactericidal activity against Acinetobacter baumannii assessed as reduction in colony forming unit at MIC by time-kill kinetic assay; format: functional
Cell membrane [11] = experiment: Induction of cell membrane disruption in Acinetobacter baumannii assessed as increase in protein leakage at 0.5 to 8 times MIC; format: cell membranes
Acinetobacter baumannii [12] = experiment: Induction of drug resistance against Acinetobacter baumannii assessed as fold increase at MIC measured after 16 passages; format: functional
Cell membrane [13] = experiment: Induction of inner membrane permeabilization in Escherichia coli ATCC 25922 assessed as increase in fluorescence intensity by PI staining based fluorescence analysis; format: cell membranes
Acinetobacter baumannii [14] = experiment: Antibacterial activity against Acinetobacter baumannii assessed as reduction in metabolic activity by alamar blue staining based assay; format: functional, organism-based
[15] = Cytotoxicity against human Colon epithelial cell at 20 ug/ml; format: toxicity, cell-based; settings: dose 20 µg/ml
Escherichia coli [16] = experiment: Bactericidal activity against Escherichia coli ATCC 25922 assessed as reduction in bacterial growth at 4 times MIC observed after 2 hrs by time-kill kinetic assay; format: functional; set-up: scale not given: the % may be the effect or the level left
Escherichia coli [17] = experiment: Antibacterial activity against Escherichia coli ATCC 25922 assessed as reduction in biofilm formation; format: functional, organism-based
Cell membrane [18] = experiment: Induction of membrane depolarization in Escherichia coli ATCC 25922 assessed as increase in fluorescence intensity measured at 20 to 120 min by DiSC3(5) dye-based fluorescence assay; format: cell membranes; settings: time 20-120 min
Calf thymus DNA [19] = experiment: Binding affinity to calf thymus DNA assessed as decrease in fluorescence intensity of AO-DNA binding by acridine orange probe based competitive binding assay; format: nucleic-acid assay; settings: Bos taurus
Acinetobacter baumannii [20] = experiment: Antibacterial activity against Acinetobacter baumannii assessed as reduction in biofilm formation at 8 times MIC relative to control; format: functional; set-up: scale not given: the % may be the effect or the level left
[21] = Hemolytic activity in human RBC assessed as hemolysis at 512 ug/ml incubated for 1 hr relative to control; format: toxicity, cell-based, Erythrocyte; settings: human red blood cells (erythrocytes), at 512 µg/mL, read-out: Activity
Staphylococcus aureus [22] = experiment: Antibacterial activity against Staphylococcus aureus ATCC 25923 assessed as inhibition of bacterial growth incubated for 18 hrs by two fold broth microdilution assay; format: functional
Cell membrane [23] = experiment: Induction of cell membrane disruption in Escherichia coli ATCC 25922 assessed as increase in protein leakage at 0.5 to 8 times MIC; format: cell membranes
Staphylococcus aureus [24] = experiment: Antibacterial activity against Staphylococcus aureus assessed as inhibition of bacterial growth incubated for 18 hrs by two fold broth microdilution assay; format: functional
Acinetobacter baumannii [25] = experiment: Antibacterial activity against Acinetobacter baumannii assessed as inhibition of bacterial growth incubated for 18 hrs by two fold broth microdilution assay; format: functional
Pseudomonas aeruginosa [26] = experiment: Antibacterial activity against Pseudomonas aeruginosa ATCC 27853 assessed as inhibition of bacterial growth incubated for 18 hrs by two fold broth microdilution assay; format: functional
Cell membrane [27] = experiment: Induction of membrane depolarization in Acinetobacter baumannii assessed as increase in fluorescence intensity at 1 to 8 times MIC by DiSC3(5) dye-based fluorescence assay; format: cell membranes; settings: TDE = time-dependent effect
Cell membrane [28] = experiment: Induction of membrane depolarization in Escherichia coli ATCC 25922 assessed as increase in fluorescence intensity at 1 to 8 times MIC by DiSC3(5) dye-based fluorescence assay; format: cell membranes; settings: TDE = time-dependent effect
Acinetobacter baumannii [29] = experiment: Antibacterial activity against Acinetobacter baumannii assessed as reduction in biofilm formation; format: functional, organism-based
Escherichia coli [30] = experiment: Antibacterial activity against Escherichia coli ATCC 25922 assessed as reduction in biofilm formation at 8 times MIC relative to control; format: functional; set-up: scale not given: the % may be the effect or the level left
Cell membrane [31] = experiment: Induction of outer membrane permeabilization in Acinetobacter baumannii assessed as increase in fluorescence intensity by NPN-dye based fluorescence analysis; format: cell membranes
Cell membrane [32] = experiment: Induction of cell membrane disruption in Acinetobacter baumannii assessed as cell membrane shrank at 2 times MIC by scanning electron microscopic analysis; format: cell membranes
Staphylococcus aureus [33] = experiment: Antibacterial activity against Staphylococcus aureus ATCC 29213 assessed as inhibition of bacterial growth incubated for 18 hrs by two fold broth microdilution assay; format: functional
Escherichia coli [34] = experiment: Induction of drug resistance against Escherichia coli ATCC 25922 assessed as fold increase at MIC measured after 16 passages; format: functional
Acinetobacter baumannii [35] = experiment: Antibacterial activity against Acinetobacter baumannii assessed as increase in intracellular ROS production by measuring green fluorescence by DCFH-DA staining based microscopic analysis; format: functional, organism-based
Cell membrane [36] = experiment: Induction of membrane depolarization in Acinetobacter baumannii assessed as increase in fluorescence intensity measured at 20 to 120 min by DiSC3(5) dye-based fluorescence assay; format: cell membranes; settings: time 20-120 min
Escherichia coli [37] = experiment: Induction of oxidative stress in Escherichia coli ATCC 25922 assessed as decrease in GSH activity by Ellman's method; format: functional, organism-based
Cell membrane [38] = experiment: Induction of inner membrane permeabilization in Acinetobacter baumannii assessed as increase in fluorescence intensity by PI staining based fluorescence analysis; format: cell membranes
Cell membrane [39] = experiment: Induction of cell membrane disruption in Escherichia coli ATCC 25922 assessed as cell membrane shrank at 2 times MIC by scanning electron microscopic analysis; format: cell membranes
[40] = Cytotoxicity against human Squamous epithelial cell at 20 ug/ml; format: toxicity, cell-based; settings: dose 20 µg/ml
Escherichia coli [41] = experiment: Antibacterial activity against Escherichia coli ATCC 25922 assessed as reduction in metabolic activity by alamar blue staining based assay; format: functional, organism-based
Enterococcus faecalis = experiment: Antibacterial activity against Enterococcus faecalis assessed as inhibition of bacterial growth incubated for 18 hrs by two fold broth microdilution assay; format: functional
Erythrocyte = experiment: Hemolytic activity in human RBC assessed as intact cell surface at 512 ug/ml incubated for 1 hr by microscopic analysis; format: toxicity, cell-based; settings: dose 512 µg/ml
Calf thymus DNA [42] = experiment: Binding affinity to calf thymus DNA assessed as DNA intercalation by measuring hypochromic shift by absorbance based UV-Vis spectroscopic analysis; format: nucleic-acid assay; settings: Bos taurus
Cell membrane [43] = experiment: Induction of inner membrane damage in Acinetobacter baumannii at 1 to 4 times MIC by PI staining fluorescence microscopy; format: cell membranes
Escherichia coli [44] = experiment: Antibacterial activity against Escherichia coli assessed as inhibition of bacterial growth incubated for 18 hrs by two fold broth microdilution assay; format: functional
Escherichia coli [45] = experiment: Antibacterial activity against Escherichia coli ATCC 25922 assessed as reduction in LDH activity; format: functional, organism-based
Pseudomonas aeruginosa [46] = experiment: Antibacterial activity against Pseudomonas aeruginosa assessed as inhibition of bacterial growth incubated for 18 hrs by two fold broth microdilution assay; format: functional
Escherichia coli [47] = experiment: Antibacterial activity against Escherichia coli ATCC 25922 assessed as increase in intracellular ROS production by DCFH-DA staining based assay; format: functional, organism-based
[48] = Cytotoxicity against human Colon epithelial cell assessed as cell viability upto 50 ug/ml relative to control; format: toxicity, cell-based; settings: colon epithelial cells, up to 50 µg/mL, read-out: Activity
Cell membrane [49] = experiment: Induction of inner membrane damage in Escherichia coli ATCC 25922 at 1 to 4 times MIC by PI staining fluorescence microscopy; format: cell membranes
Acinetobacter baumannii [50] = experiment: Bactericidal activity against Acinetobacter baumannii assessed as reduction in bacterial growth at 4 times MIC observed after 2 hrs by time-kill kinetic assay; format: functional; set-up: scale not given: the % may be the effect or the level left

SMILES: N#C/C(=C\c1cn(CCO)c2ccccc12)S(=O)(=O)c1ccc(N)cc1
- Activity (Acinetobacter baumannii [1]): Dose-Dependent Effect
- Activity (Escherichia coli [2]): Dose-Dependent Effect
- Activity (Acinetobacter baumannii [3]): Dose-Dependent Effect
- viability [4]: > 85%
- MIC (Staphylococcus aureus [5]): 2 µg/mL (≈ 5.44 µM)
- MIC (Escherichia coli [6]): 0.5 µg/mL (≈ 1.36 µM)
- Activity (Acinetobacter baumannii [7]): Dose-Dependent Effect
- MIC (Klebsiella pneumoniae): 8 µg/mL (≈ 21.8 µM)
- Activity (Cell membrane [8]): Dose-Dependent Effect
- Activity (Escherichia coli [9]): 2.5 log10CFU
- Activity (Acinetobacter baumannii [10]): 2 log10CFU
- Activity (Cell membrane [11]): Active
- fold change (FC) (Acinetobacter baumannii [12]): 8
- Activity (Cell membrane [13]): Dose-Dependent Effect
- Activity (Acinetobacter baumannii [14]): Dose-Dependent Effect
- Activity [15]: Non-Toxic
- Activity (Escherichia coli [16]): 57%
- Activity (Escherichia coli [17]): Dose-Dependent Effect
- Activity (Cell membrane [18]): Dose-Dependent Effect
- Activity (Calf thymus DNA [19]): Active
- Activity (Acinetobacter baumannii [20]): 39%
- hemolysis at 1 h, 512 ug/ml [21]: < 3%
- MIC (Staphylococcus aureus [22]): 1 µg/mL (≈ 2.72 µM)
- Activity (Cell membrane [23]): Active
- MIC (Staphylococcus aureus [24]): 2 µg/mL (≈ 5.44 µM)
- MIC (Acinetobacter baumannii [25]): 0.5 µg/mL (≈ 1.36 µM)
- MIC (Pseudomonas aeruginosa [26]): 4 µg/mL (≈ 10.9 µM)
- Activity (Cell membrane [27]): Tde
- Activity (Cell membrane [28]): Tde
- Activity (Acinetobacter baumannii [29]): Dose-Dependent Effect
- Activity (Escherichia coli [30]): 21%
- Activity (Cell membrane [31]): Dose-Dependent Effect
- Activity (Cell membrane [32]): Active
- MIC (Staphylococcus aureus [33]): 2 µg/mL (≈ 5.44 µM)
- fold change (FC) (Escherichia coli [34]): 8
- Activity (Acinetobacter baumannii [35]): Dose-Dependent Effect
- Activity (Cell membrane [36]): Dose-Dependent Effect
- Activity (Escherichia coli [37]): Dose-Dependent Effect
- Activity (Cell membrane [38]): Dose-Dependent Effect
- Activity (Cell membrane [39]): Active
- Activity [40]: Non-Toxic
- Activity (Escherichia coli [41]): Dose-Dependent Effect
- MIC (Enterococcus faecalis): 4 µg/mL (≈ 10.9 µM)
- Activity (Erythrocyte): Non-Toxic
- Activity (Calf thymus DNA [42]): Active
- Activity (Cell membrane [43]): Active
- MIC (Escherichia coli [44]): 8 µg/mL (≈ 21.8 µM)
- Activity (Escherichia coli [45]): Dose-Dependent Effect
- MIC (Pseudomonas aeruginosa [46]): 2 µg/mL (≈ 5.44 µM)
- Activity (Escherichia coli [47]): Dose-Dependent Effect
- viability [48]: > 85%
- Activity (Cell membrane [49]): Active
- Activity (Acinetobacter baumannii [50]): 57%

SMILES: CC(=O)Nc1ccc(S(=O)(=O)/C(C#N)=C/c2cn(Cc3cccc(F)c3)c3ccccc23)cc1
- MIC (Staphylococcus aureus [5]): 256 µg/mL (≈ 541 µM)
- MIC (Escherichia coli [6]): 64 µg/mL (≈ 135 µM)
- MIC (Klebsiella pneumoniae): 256 µg/mL (≈ 541 µM)
- MIC (Staphylococcus aureus [22]): 16 µg/mL (≈ 33.8 µM)
- MIC (Staphylococcus aureus [24]): 64 µg/mL (≈ 135 µM)
- MIC (Acinetobacter baumannii [25]): 16 µg/mL (≈ 33.8 µM)
- MIC (Pseudomonas aeruginosa [26]): 16 µg/mL (≈ 33.8 µM)
- MIC (Staphylococcus aureus [33]): 16 µg/mL (≈ 33.8 µM)
- MIC (Enterococcus faecalis): 32 µg/mL (≈ 67.6 µM)
- MIC (Escherichia coli [44]): 128 µg/mL (≈ 270 µM)
- MIC (Pseudomonas aeruginosa [46]): 64 µg/mL (≈ 135 µM)
